From ChEMBL document CHEMBL5518227, “Discovery of JNJ-1802, a First-in-Class Pan-Serotype Dengue Virus NS4B Inhibitor” (J Med Chem, 2024)
In brackets after ≈: the same amount, converted by molar mass. Several values for one entry are separate records, joined by “and”; a condition that tells them apart may be missing. Equal entries are not always repeated.

Legend:
[1] = Volume of distribution at steady state in Sprague-Dawley rat at 2.5 mg/kg, iv measured after 24 hrs by LC-MS/MS analysis; assay type: ADME, organism-based; details: in vivo, read-out: Vdss
[2] = Thermodynamic solubility of the compound in PEG400 measured after 24 hrs by UPLC analysis; assay type: physicochemical
[3] = Clearance in Sprague-Dawley rat assessed as liver blood flow at 2.5 mg/kg, iv measured after 24 hrs by LC-MS/MS analysis; assay type: ADME, organism-based; details: in vivo
[4] = Metabolic stability in human liver microsomes assessed as intrinsic clearance preincubated for 5 mins followed by NADPH addition measured upto 60 mins by LC-MS/MS analysis; assay type: ADME, Microsome; details: time < 65 min, read-out: CLH
[5] = Elimination half life in Sprague-Dawley rat at 2.5 mg/kg, iv measured after 24 hrs by LC-MS/MS analysis; assay type: ADME, organism-based; details: in vivo, read-out: beta t1/2 (converted)
[6] = Thermodynamic solubility of the compound in aqueous buffer at pH 7.4 measured after 24 hrs by UPLC analysis; assay type: physicochemical; details: read-out: Therm_solubility
[7] = Clearance in Sprague-Dawley rat at 2.5 mg/kg, iv measured after 24 hrs by LC-MS/MS analysis; assay type: ADME, organism-based; details: in vivo
dengue virus type 1 = assay: Antiviral activity against DENV-1 TC974#666 infected in african green monkey Vero cells incubated for 24 hrs measured after 3 days post infection by RT-PCR analysis; assay type: functional, organism-based
[8] = Oral bioavailability in Sprague-Dawley rat at 10 mg/kg measured after 24 to 48 hrs by LC-MS/MS analysis; assay type: ADME, organism-based; details: in vivo, time 24-48 hrs
[9] = AUC in Sprague-Dawley rat at 10 mg/kg, po measured after 24 to 48 hrs by LC-MS/MS analysis; assay type: ADME, organism-based; details: in vivo, time 24-48 hrs
[10] = Metabolic stability in rat hepatocytes assessed as intrinsic clearance measured per million cells incubated upto 120 mins by LC-MS/MS analysis; assay type: ADME, cell-based, Hepatocyte; details: read-out: CLH
[11] = Cmax in Sprague-Dawley rat at 10 mg/kg, po measured after 24 to 48 hrs by LC-MS/MS analysis; assay type: ADME, organism-based; details: in vivo, time 24-48 hrs
dengue virus type 4 = assay: Antiviral activity against DENV-4 H241 infected in african green monkey Vero cells incubated for 24 hrs measured after 3 days post infection by RT-PCR analysis; assay type: functional, organism-based
[12] = Chromatographic hydrophobicity index, log D of the compound at pH 7.4 by LC/MS analysis; assay type: physicochemical; details: buffer
dengue virus type 3 = assay: Antiviral activity against DENV-3 H87 infected in african green monkey Vero cells incubated for 24 hrs measured after 3 days post infection by RT-PCR analysis; assay type: functional, organism-based
[13] = Metabolic stability in human hepatocytes assessed as intrinsic clearance measured per million cells incubated upto 120 mins by LC-MS/MS analysis; assay type: ADME, cell-based, Hepatocyte; details: read-out: CLH
dengue virus type 2 = assay: Antiviral activity against DENV-2 16681 expressing eGFP infected in african green monkey Vero cells incubated with cells for 24 hrs followed by viral infection measured after 3 days by laser microscopic analysis; assay type: functional, organism-based; details: Dengue virus, 16681, Vero
[14] = Metabolic stability in rat liver microsomes assessed as intrinsic clearance preincubated for 5 mins followed by NADPH addition measured upto 60 mins by LC-MS/MS analysis; assay type: ADME, Microsome; details: time < 65 min, read-out: CLH
[15] = Metabolic stability in mouse liver microsomes assessed as intrinsic clearance preincubated for 5 mins followed by NADPH addition measured upto 60 mins by LC-MS/MS analysis; assay type: ADME, Microsome; details: time < 65 min, read-out: CLH
[16] = Dengue virus, TC974#666, Vero, read-out: EC50
[17] = Dengue virus, H87, Vero, read-out: EC50

microsomal CLint [4] [µL/min/mg] | EC50 (dengue virus type 1; [16]) [nM] | EC50 (dengue virus type 4) [nM] | Chromatographic log D at pH 7.4 [12] | EC50 (dengue virus type 3; [17]) [nM] | hepatocyte CLint [13] [µL/min/1e6 cells] | EC50 (dengue virus type 2) [nM] | Compound | other results
< 8 | 0.97 | – | – | – | – | – | COc1cc(NC(C(=O)c2c[nH]c3cc(OC)c(C)cc23)c2ccc(Cl)cc2OC)cc(S(C)(=O)=O)c1 (configuration not stated) | Vd [1]: 8.8 L/kg; Therm_solubility [2]: > 169000 µg/mL; LBF [3]: 33%; half-life [5]: 4.4 h; solubility thermodynamic at 24 h [6]: 1 µg/mL (≈ 1.84 µM); clearance [7]: 23 mL/min/kg; EC50 (dengue virus type 1; vero, read-out: EC50): 0.9 nM; bioavailability [8]: 74%; AUC [9]: 5140 ng·h/mL; hepatocyte CLint [10]: 7.2 µL/min/1e6 cells; Cmax [11]: 371 ng/mL
< 8 | 0.1 | 11 | 4.16 | 1 | < 1.2 | 0.051 | COc1cc(NC(C(=O)c2c[nH]c3c(C)cc(OC(F)(F)F)cc23)c2ccc(Cl)cc2OC)cc(S(C)(=O)=O)c1 (configuration not stated) | –
< 8 | – | – | 3.46 | – | – | – | COc1cc(NC(C(=O)c2c[nH]c3cc(F)ccc23)c2ccc(Cl)cc2OC)cc(S(C)(=O)=O)c1 (single isomer, unassigned; (+)) | EC50 (dengue virus type 1; vero, read-out: EC50): 20 nM and 2 nM
< 8 | 2 | 83 | 3.73 | 19 | – | 0.24 | COc1cc(NC(C(=O)c2c[nH]c3c(C)c(F)ccc23)c2ccc(Cl)cc2OC)cc(S(C)(=O)=O)c1 (single isomer, unassigned; (+)) | –
< 8 | 0.4 | 44 | 3.68 | 8 | 2.4 | 0.17 | COc1cc(NC(C(=O)c2c[nH]c3cc(F)c(C)cc23)c2ccc(Cl)cc2OC)cc(S(C)(=O)=O)c1 (single isomer, unassigned; (+)) | –
– | 40 | 110 | 3.36 | 55 | 7.6 | 0.61 | COc1cc(NC(C(=O)c2c[nH]c3cc(OC)c(C)cc23)c2ccc(F)cc2OC)cc(S(C)(=O)=O)c1 (single isomer, unassigned; (+)) | Vd [1]: 5.5 L/kg; Therm_solubility [2]: 93000 µg/mL; LBF [3]: 20%; half-life [5]: 5.1 h; solubility thermodynamic at 24 h [6]: 1 µg/mL (≈ 1.9 µM); clearance [7]: 14 mL/min/kg; bioavailability [8]: 31%; AUC [9]: 3700 ng·h/mL; hepatocyte CLint [10]: 17 µL/min/1e6 cells; Cmax [11]: 263 ng/mL
< 8 | 0.4 | 15 | 3.87 | 6 | < 1.2 | 0.31 | COc1cc(NC(C(=O)c2c[nH]c3ccc(C(F)(F)F)cc23)c2ccc(Cl)cc2OC)cc(S(C)(=O)=O)c1 (single isomer, unassigned; (+)) | –
– | 2 | 53 | 3.24 | 17 | < 1.9 | 0.37 | COc1cc(NC(C(=O)c2c[nH]c3cc(OC)c(C)cc23)c2ccc(Cl)cc2OCCO)cc(S(C)(=O)=O)c1 (single isomer, unassigned; (+)) | Vd [1]: 7.1 L/kg; LBF [3]: 31%; half-life [5]: 4.7 h; solubility thermodynamic at 24 h [6]: < 1 µg/mL; clearance [7]: 21 mL/min/kg; bioavailability [8]: 16%; AUC [9]: 1200 ng·h/mL; hepatocyte CLint [10]: 3.7 µL/min/1e6 cells; Cmax [11]: 103 ng/mL
< 8 | 4 | 100 | 3.22 | 53 | 10 | 0.34 | COc1cc(NC(C(=O)c2c[nH]c3cc(OC)c(F)cc23)c2ccc(Cl)cc2OC)cc(S(C)(=O)=O)c1 (single isomer, unassigned; (+)) | –
< 8 | 0.3 | 11 | 3.82 | 4 | < 1.2 | 0.057 | COc1cc(NC(C(=O)c2c[nH]c3cc(OC)c(OC(F)(F)F)cc23)c2ccc(Cl)cc2OC)cc(S(C)(=O)=O)c1 (single isomer, unassigned; (+)) | –
< 8 | 4 | 110 | 3.23 | 48 | 10 | 0.3 | COc1cc(NC(C(=O)c2c[nH]c3cc(OC)ccc23)c2ccc(Cl)cc2OC)cc(S(C)(=O)=O)c1 (single isomer, unassigned; (+)) | –
< 8 | 2 | 95 | 3.59 | 19 | 14 | 0.11 | COc1cc(NC(C(=O)c2c[nH]c3c(C)c(OC)ccc23)c2ccc(Cl)cc2OC)cc(S(C)(=O)=O)c1 (single isomer, unassigned; (+)) | –

More lines, now with the values behind:

Compound | microsomal CLint [4] [µL/min/mg] | EC50 (dengue virus type 1; [16]) [nM] | EC50 (dengue virus type 4) [nM] | Chromatographic log D at pH 7.4 [12] | EC50 (dengue virus type 3; [17]) [nM] | hepatocyte CLint [13] [µL/min/1e6 cells] | EC50 (dengue virus type 2) [nM] | other results
COc1cc(NC(C(=O)c2c[nH]c3ccccc23)c2ccc(F)cc2)cc(OCCO)c1 (configuration not stated) | < 8 | 86 | 2600 | – | 950 | – | 14 | microsomal CLint [14]: 24 µL/min/mg; microsomal CLint [15]: 94 µL/min/mg
COc1cc(NC(C(=O)c2c[nH]c3ccccc23)c2ccc(F)cc2)cc(S(=O)(=O)CCCO)c1 (configuration not stated) | 35 | – | 14000 | – | – | – | 230 | microsomal CLint [14]: 66 µL/min/mg; EC50 (dengue virus type 3; vero): Not Active; EC50 (dengue virus type 1; vero): Not Active
COc1cc(NC(C(=O)c2c[nH]c3cc(F)ccc23)c2ccc(F)cc2OC)cc(S(C)(=O)=O)c1 (configuration not stated) | – | 8 | 170 | 3.23 | 50 | < 1.9 | – | Vd [1]: 7.2 L/kg; Therm_solubility [2]: 41000 µg/mL; LBF [3]: 23%; half-life [5]: 5.3 h; solubility thermodynamic at 24 h [6]: 2 µg/mL (≈ 4 µM); clearance [7]: 16 mL/min/kg; bioavailability [8]: 49%; AUC [9]: 5210 ng·h/mL; hepatocyte CLint [10]: 8.5 µL/min/1e6 cells; Cmax [11]: 418 ng/mL
COc1cc(NC(C(=O)c2c[nH]c3ccccc23)c2ccc(F)cc2)cc(S(C)(=O)=O)c1 (configuration not stated) | 12 | 88 | 1800 | – | 680 | – | 9 | microsomal CLint [14]: 16 µL/min/mg; microsomal CLint [15]: 48 µL/min/mg
COc1cc(NC(C(=O)c2c[nH]c3cc(F)ccc23)c2ccc(F)cc2OCCO)cc(S(C)(=O)=O)c1 (single isomer, unassigned; (+)) | – | 8 | 290 | Not Active | 68 | 27 | 1 | Vd [1]: 10 L/kg; LBF [3]: 40%; half-life [5]: 3.9 h; solubility thermodynamic at 24 h [6]: 1 µg/mL (≈ 1.88 µM); clearance [7]: 35 mL/min/kg; bioavailability [8]: 27%; AUC [9]: 1250 ng·h/mL; hepatocyte CLint [10]: 8.8 µL/min/1e6 cells; Cmax [11]: 104 ng/mL
COc1cc(NC(C(=O)c2c[nH]c3ccccc23)c2ccc(F)cc2OC)cc(S(C)(=O)=O)c1 (single isomer, unassigned; (+)) | 9 | 12 | 230 | – | 120 | 7 | 2 | microsomal CLint [14]: 15 µL/min/mg; microsomal CLint [15]: 27 µL/min/mg
COc1cc(NC(C(=O)c2c[nH]c3cc(OC)c(C)cc23)c2ccc(F)cc2OCCO)cc(S(C)(=O)=O)c1 (single isomer, unassigned; (+)) | – | 3 | 110 | 2.98 | 43 | < 1.9 | 0.84 | Vd [1]: 9.6 L/kg; LBF [3]: 42%; half-life [5]: 4.2 h; solubility thermodynamic at 24 h [6]: < 1 µg/mL; clearance [7]: 30 mL/min/kg; bioavailability [8]: 18%; AUC [9]: 1010 ng·h/mL; hepatocyte CLint [10]: 11 µL/min/1e6 cells; Cmax [11]: 94 ng/mL
COc1cc(NC(C(=O)c2c[nH]c3ccccc23)c2ccc(F)cc2OC)cc(OCCO)c1 (single isomer, unassigned; (+)) | 8 | 40 | 760 | – | 210 | – | 9 | microsomal CLint [14]: 24 µL/min/mg; microsomal CLint [15]: 190 µL/min/mg
COc1cc(NC(C(=O)c2c[nH]c3cc(F)ccc23)c2ccc(Cl)cc2OCCO)cc(S(C)(=O)=O)c1 (single isomer, unassigned; (+)) | – | 1 | 71 | – | 9 | 29 | 0.46 | –
